The values that follow come from patent US20210292306A1, “NOVEL INDOLE DERIVATIVE AND ANTI-CANCER CONPOSITION CONTAINING SAME” (KOREA RESEARCH INSTITUTE OF BIOSCIENCE AND BIOTECHNOLOGY, priority 2016, published 2021).

Experiment [1] has as its system MCF7/ADR. Put plainly: Anti-proliferative activity in cancer cells showing multiple drug resistance (MTT assay). The class given is cell-based. To be noted: ratio of IC50 MCF7/ADR to IC50 MCF7. The method, then: (§1) HeLa cells (ATCC, USA), which are a human cervical cancer cell line, were dispensed into a 96-well plate at 2×10^3 cells/well, and the cells were treated with DMSO or the indole derivatives of the present invention, and then allowed to grow for 4 days. And then, MTT (3-(4,5-Dimethylthiazol-2-yl)-2,5-diphenyltetrazolium bromide) reagent was added to the wells at 10 μl/well. After 2 hours, the absorbance was measured at “OD 450” and statistical values were obtained using the plizm6 program. The data represent mean values of the results of two repeated assays (Table 1). Specifically, K562 and MCF7 (Bio Evaluation Center, Korea Research Institute of Bioscience and Biotechnology, Korea), and K562/ADR and MCF7/ADR (Bio Evaluation Center, Korea Research Institute of Bioscience and Biotechnology, Korea), which are multiple drug-resistant cell lines of the above mentioned cell lines, respectively, were cultured on a microtiter plate at 1-3×10^3 cells/well.
(Tetrazolium assays rely on reduction of a dye to a coloured formazan, in cell work by metabolically active cells.)

Experiment [2] concerns K562/ADR. The experiment is described as above. The class given is cell-based. To be noted: ratio of IC50 K562/ADR to IC50 K562. The method, then: as §1
Experiment [3] has as its system human-derived skin cancer cell line (A431). Put plainly: Anti-cancer effect in human-derived skin cancer cell (A431) implantation nude mouse model. The class given is in vivo, BALB/C female nude mouse. To be noted: for tumor growth inhibition: day 23; for tumor weight reduction: excised A431 tumors weighed. The method, then:
The human cancer cell line A431 which was kept frozen in liquid nitrogen was thawed and cell culture was conducted. Cells were cultured in a CO2 incubator (Forma, USA) at 37° C. and 5% CO2 for an appropriate period of time. On the last day of culture, all cancer cells were collected and counted and the cell concentration was adjusted to 1×10^7 cells/ml using serum free media. The culture solution thus prepared was injected subcutaneously in the axillary region between the scapula and chest wall in an amount of 0.3 ml per BALB/C female nude mouse (5 weeks old, Nara Biotech) (3×10^6 cells/mouse). […] To examine the toxicity levels of the repeated intraperitoneal administration of WCI-1031 to A431 cancer cell implantation nude mice, general symptoms and weight changes of the animals were observed during the administration period. […] On day 23 after the start of the drug administration, blood was taken from the mice through ophthalmic veins 2 hours after the last administration, and the mice were sacrificed using CO2 gas. Then the mice were photographed and the tumors was isolated and weighed in a chemical balance. After taking photographs, each tumor was divided in half, and the resultant tumors were fixed to liquid nitrogen and formalin, respectively.

For `COc1cccc2c1C(=O)c1c(O)c3c(c(O)c1C2=O)C[C@@](O)(C(=O)CO)C[C@@H]3O[C@H]1C[C@H](N)[C@H](O)[C@H](C)O1` [Doxorubicin, doxorubicin], the Resistance factor in experiment [1] is 169.57; in experiment [2], 767.91.

Regarding `O=c1[nH]cc(F)c(=O)[nH]1` [Example 5-FU, 5-FU, reference compound], in experiment [3] (5-FU 2 mg/ml at 10 ml/kg, days 0-2, 5-9, 12-16, 19-23, p<0.01), the tumor growth inhibition worked out at 20.7%. In addition, in experiment [3] (5-FU 2 mg/ml at 10 ml/kg, p<0.05), the tumor weight reduction was determined as 20.8%.

As for `CC(=O)O[C@H]1C(=O)[C@@]2(C)[C@H]([C@H](OC(=O)c3ccccc3)[C@]3(O)C[C@H](OC(=O)[C@H](O)[C@@H](NC(=O)c4ccccc4)c4ccccc4)C(C)=C1C3(C)C)[C@]1(OC(C)=O)CO[C@@H]1C[C@@H]2O` [Taxol, taxol], the Resistance factor in experiment [1] is 438.38; in experiment [2] it was 519.6.

On to `CC[C@]1(O)C[C@@H]2CN(CCc3c([nH]c4ccccc34)[C@@](C(=O)OC)(c3cc4c(cc3OC)N(C)[C@H]3[C@@](O)(C(=O)OC)[C@H](OC(C)=O)[C@]5(CC)C=CCN6CC[C@]43[C@@H]65)C2)C1` [Vinblastine, vinblastine], for which the Resistance factor in experiment [1] was determined as 18.17; in experiment [2], 15.63.

With `COc1cc2c(c(OC)c1OC)-c1ccc(OC)c(=O)cc1[C@@H](NC(C)=O)CC2` [colchicine, reference compound], the tumor growth inhibition in experiment [3] (colchicine 0.07 mg/kg, days 0-23, p<0.05) amounted to 17.6%. This molecule also registered a tumor weight reduction in experiment [3] (colchicine 0.07 mg/kg, p<0.05) of 17.6%. Further, the Resistance factor in experiment [1] is 34.15; in experiment [2] it was 22.91.
